Experimental data: the NIST ThermoML archive (doi:10.1016/j.jct.2013.11.021)

What was measured:
[1] = mn = molality of the nth substance listed, in mol/kg; conditions: 101 kPa, Liquid; for speed of sound: Sing-around technique in a fixed-path interferometer; for mass density: Vibrating tube method
[2] = 313.15 K; 101 kPa; Liquid; Sing-around technique in a fixed-path interferometer

O=C[O-].[NH3+]CCCO [3-hydroxypropylammonium formate] + O
[1]
Conditions	mass density, 298.15 K [kg/m3]	mass density, 303.15 K [kg/m3]	mass density, 308.15 K [kg/m3]	mass density, 313.15 K [kg/m3]	mass density, 318.15 K [kg/m3]	speed of sound, 298.15 K [m/s]	speed of sound, 303.15 K [m/s]	speed of sound, 308.15 K [m/s]	speed of sound, 313.15 K [m/s]	speed of sound, 318.15 K [m/s]
m1 = 0.1	998.637	997.222	995.623	993.757	991.751	1501.7	1513.4	1523.7	1532.4	1539.7
m1 = 0.2	1000.2	998.76	997.068	995.252	993.147	1507.7	1519	1528.9	1538.2	1545.2
m1 = 0.3	1001.76	1000.3	998.625	996.753	994.624	1513.5	1524.4	1533.9	1542	1548.6
m1 = 0.4	1003.33	1001.84	999.944	998.26	996.183	1519.7	1530.3	1539.6	1547.4	1553.8

O=C[C@H](O)[C@@H](O)[C@H](O)[C@H](O)CO [D-glucose] + O
[1]
Conditions	mass density, 298.15 K [kg/m3]	mass density, 303.15 K [kg/m3]	mass density, 308.15 K [kg/m3]	mass density, 313.15 K [kg/m3]	mass density, 318.15 K [kg/m3]	speed of sound, 298.15 K [m/s]	speed of sound, 303.15 K [m/s]	speed of sound, 308.15 K [m/s]	speed of sound, 313.15 K [m/s]	speed of sound, 318.15 K [m/s]
m1 = 0.04842	1000.33	998.923	997.289	995.463	993.441	1499.3	1512.1	–	1531.8	–
m1 = 0.06669	1001.56	1000.14	998.498	996.672	994.638	–	1513.2	1523.1	1532.9	1539.7
m1 = 0.0976	1003.62	1002.18	1000.53	998.7	996.647	1502.3	1515.1	1525	1534.6	1541.4
m1 = 0.1066	1004.22	1002.77	1001.12	999.285	997.23	1502.9	1515.6	1525.5	1535.1	1541.9
m1 = 0.1235	1005.32	1003.87	1002.21	1000.38	998.311	1504	1516.7	1526.6	1536.1	1542.8
m1 = 0.1462	–	1005.34	1003.67	1001.84	999.761	1505.4	1518.1	–	1537.3	–

O [water]
Conditions	speed of sound [m/s]
[2]	1528.9
